What was measured:
[1] = Stability in simulated intestinal fluid; type: in vitro ADME; conditions: 2 μM peptidomimetic, simulated intestinal fluid pH 7.5, 37° C.; for half-life at 2 μM: read-out: half-life (t1/2) when incubated with simulated intestinal fluid
Description: (§1) Reactions were terminated by the addition of TFA/H2O (15 mL, 10% (v/v)). […] The column was equilibrated with TFA/H20, at a flow rate of 1 mL/min.

DPP IV = DPP IV (Homo sapiens, UniProt P27487); experiment: Stability against DPP IV enzyme; type: in vitro ADME; conditions: 37° C.; for % degradation of peptidomimetics in 24 h when incubated with DPP-IV enzyme: 2 μM peptidomimetic; for half-life at 2 μM: DPP IV enzyme, pH 7.8, 2 μM peptidomimetic, read-out: half-life (t1/2) when incubated with DPP-IV enzyme
Chain of DPP IV (P27487 whole entry, species assumed): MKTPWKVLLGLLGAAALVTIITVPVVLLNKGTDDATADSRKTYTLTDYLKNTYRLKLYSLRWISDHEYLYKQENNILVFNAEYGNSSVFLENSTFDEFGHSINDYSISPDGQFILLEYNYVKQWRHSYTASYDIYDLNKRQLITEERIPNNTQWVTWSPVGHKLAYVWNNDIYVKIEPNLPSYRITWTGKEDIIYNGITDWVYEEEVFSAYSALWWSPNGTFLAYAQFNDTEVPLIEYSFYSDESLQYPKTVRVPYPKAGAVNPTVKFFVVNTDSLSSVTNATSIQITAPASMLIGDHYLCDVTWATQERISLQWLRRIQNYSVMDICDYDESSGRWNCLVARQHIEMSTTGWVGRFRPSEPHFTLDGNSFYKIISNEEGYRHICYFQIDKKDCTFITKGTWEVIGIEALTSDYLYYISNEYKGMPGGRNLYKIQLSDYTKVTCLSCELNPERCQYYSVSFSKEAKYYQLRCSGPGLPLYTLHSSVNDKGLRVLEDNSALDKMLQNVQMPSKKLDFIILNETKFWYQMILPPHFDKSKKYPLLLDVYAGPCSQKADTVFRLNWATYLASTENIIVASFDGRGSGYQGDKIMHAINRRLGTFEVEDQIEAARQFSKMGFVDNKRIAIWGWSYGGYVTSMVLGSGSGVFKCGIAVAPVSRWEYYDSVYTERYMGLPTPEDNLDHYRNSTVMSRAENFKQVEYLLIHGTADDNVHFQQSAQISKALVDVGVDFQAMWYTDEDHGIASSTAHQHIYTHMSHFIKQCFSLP
Description: as §1

[2] = Stability in liver microsomes; type: in vitro ADME; conditions: 2 μM peptidomimetic, human liver microsomes, 37° C.; for half-life at 2 μM: pH 7.8, read-out: half-life (t1/2) when incubated with liver microsomes
Description: as §1

Human GLP-1 receptor = biological target: T1, Human GLP-1 receptor (Homo sapiens, UniProt P43220); experiment: In vitro Human GLP-1 R agonist activity (cyclic AMP determination) in CHO/human GLP1R cells; type: cell-based
T1 construct: The full-length cDNA was cloned in pcDNA3.1(+); expressed in transfected cells
T1 sequence (P43220 24-463): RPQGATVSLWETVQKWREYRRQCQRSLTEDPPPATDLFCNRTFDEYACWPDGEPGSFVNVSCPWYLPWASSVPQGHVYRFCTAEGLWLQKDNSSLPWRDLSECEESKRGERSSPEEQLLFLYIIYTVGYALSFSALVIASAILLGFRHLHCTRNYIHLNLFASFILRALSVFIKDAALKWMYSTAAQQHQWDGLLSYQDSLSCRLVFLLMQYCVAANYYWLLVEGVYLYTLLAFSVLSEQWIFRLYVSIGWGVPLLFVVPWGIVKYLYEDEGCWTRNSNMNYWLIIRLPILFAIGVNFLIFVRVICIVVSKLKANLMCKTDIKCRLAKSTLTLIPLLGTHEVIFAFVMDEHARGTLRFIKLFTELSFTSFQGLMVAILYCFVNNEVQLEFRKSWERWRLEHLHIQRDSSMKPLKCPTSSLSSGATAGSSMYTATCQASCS

[3] = Stability in human plasma; type: in vitro ADME; conditions: 2 μM peptidomimetic, pooled human plasma, 37° C.; for half-life at 2 μM: pH 7.8, read-out: half-life (t1/2) when incubated with human plasma
Description: as §1

human glucagon receptor = biological target: T2, human glucagon receptor (Homo sapiens, UniProt P47871); experiment: In vitro human glucagon antagonist activity (inhibition of cAMP production) in CHO/human glucagon R cells; type: cell-based; conditions: with saturated concentration of glucagon peptide
T2 construct: The full-length cDNA was cloned in pcDNA3.1 (Invitrogen); expressed in transfected cells
T2 sequence (P47871 26-477): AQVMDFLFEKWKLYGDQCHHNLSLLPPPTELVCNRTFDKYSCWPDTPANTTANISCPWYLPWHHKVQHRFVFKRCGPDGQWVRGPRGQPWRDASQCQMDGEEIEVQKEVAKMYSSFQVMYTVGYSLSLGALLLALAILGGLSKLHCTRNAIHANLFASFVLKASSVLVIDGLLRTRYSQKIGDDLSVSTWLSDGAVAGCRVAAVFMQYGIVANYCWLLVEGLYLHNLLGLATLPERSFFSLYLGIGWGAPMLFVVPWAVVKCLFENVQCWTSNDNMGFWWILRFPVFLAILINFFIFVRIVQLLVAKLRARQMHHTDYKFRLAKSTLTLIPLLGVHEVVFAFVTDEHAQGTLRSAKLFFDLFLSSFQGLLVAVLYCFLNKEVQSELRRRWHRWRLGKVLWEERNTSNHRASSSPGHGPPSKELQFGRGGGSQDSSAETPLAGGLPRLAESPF

[4] = system: RIN5F (Rat Insulinoma) cells; experiment: In vitro glucose-dependent insulin secretion (RIN5F cell assay screening protocol); type: cell-based; conditions: 16.7 mM glucose load
[5] = Stability in simulated gastric fluid; type: in vitro ADME; conditions: 2 μM peptidomimetic, simulated gastric fluid pH 1.5, 37° C.; for half-life at 2 μM: read-out: half-life (t1/2) when incubated with simulated gastric fluid
Description: as §1

SMILES: CCc1cc(OC)ccc1-c1ccc(CC(NC(=O)[C@H](CC(=O)O)NC(=O)[C@H](CO)NC(=O)[C@@H](NC(=O)[C@H](Cc2ccccc2)NC(=O)[C@@H](NC(=O)CNC(=O)[C@H](CCC(N)=O)NC(=O)[C@H](CO)NC(=O)[C@@H](N)Cc2c[nH]cn2)[C@@H](C)O)[C@@H](C)O)C(=O)NC(CCCc2ccccc2F)C(N)=O)cc1 (single isomer, unassigned) [compound 45]
- % degradation of peptidomimetics in 24 h when incubated with simulated intestinal fluid [1]: 100%
- half-life at 2 μM [1]: 0.5 h
- % degradation of peptidomimetics in 24 h when incubated with DPP-IV enzyme (DPP IV): 77%
- % degradation of peptidomimetics in 24 h when incubated with liver microsomes [2]: 100%
- half-life at 2 μM [2]: 0.5 h
- Human GLP-1 R activity (cAMP release), % activity with respect to control (Human GLP-1 receptor; 1 nM test compound): 51 ± 0.03%
- Human GLP-1 R activity (cAMP release), % activity with respect to control (Human GLP-1 receptor; 10 nM test compound): 86 ± 0.40%
- Human GLP-1 R activity (cAMP release), % activity with respect to control (Human GLP-1 receptor; 100 nM test compound): 91 ± 0.21%
- Human GLP-1 R activity (cAMP release), % activity with respect to control (Human GLP-1 receptor; 1 μM test compound): 99 ± 0.32%
- Human GLP-1 R activity (cAMP release), % activity with respect to control (Human GLP-1 receptor; 10 μM test compound): 99 ± 0.21%
- half-life (t1/2) when incubated with human plasma [3]: (9) h
- % degradation of peptidomimetics in 24 h when incubated with human plasma [3]: 80%
- Human Glucagon receptor antagonistic activity shown as inhibition of cAMP production of Glucagon peptide (human glucagon receptor; 1 nM test compound): 15 ± 0.11 pmol/ml/μg prt
- Human Glucagon receptor antagonistic activity shown as inhibition of cAMP production of Glucagon peptide (human glucagon receptor; 10 nM test compound): 12 ± 0.13 pmol/ml/μg prt
- Human Glucagon receptor antagonistic activity shown as inhibition of cAMP production of Glucagon peptide (human glucagon receptor; 100 nM test compound): 8 ± 0.09 pmol/ml/μg prt
- Human Glucagon receptor antagonistic activity shown as inhibition of cAMP production of Glucagon peptide (human glucagon receptor; 1 μM test compound): 4 ± 0.01 pmol/ml/μg prt
- Human Glucagon receptor antagonistic activity shown as inhibition of cAMP production of Glucagon peptide (human glucagon receptor; 10 μM test compound): 2 ± 0.08 pmol/ml/μg prt
- Insulin secretion ([4]; 0.1 nM test compd.): 11.8 ± 0.50 pg/µg/h
- Insulin secretion ([4]; 1 nM test compd.): 14.9 ± 0.11 pg/µg/h
- Insulin secretion ([4]; 10 nM test compd.): 27.9 ± 0.31 pg/µg/h
- % degradation of peptidomimetics in 24 h when incubated with simulated gastric fluid [5]: 100%
- half-life at 2 μM [5]: 0.5 h

SMILES: CCc1cc(OC)ccc1-c1ccc(CC(NC(=O)[C@H](CC(=O)O)NC(=O)[C@H](CO)NC(=O)[C@@H](NC(=O)[C@H](Cc2ccccc2)NC(=O)[C@@H](NC(=O)CNC(=O)C(CCC#N)NC(=O)C(C)(C)NC(=O)[C@@H](N)Cc2c[nH]cn2)[C@@H](C)O)[C@@H](C)O)C(=O)NC(CCCc2ccccc2)C(N)=O)cc1 (single isomer, unassigned) [compound 29]
- % degradation of peptidomimetics in 24 h when incubated with simulated intestinal fluid [1]: 00%
- half-life at 2 μM [1]: > 24 h
- % degradation of peptidomimetics in 24 h when incubated with DPP-IV enzyme (DPP IV): 00%
- half-life at 2 μM (DPP IV): > 24 h
- half-life (t1/2) when incubated with liver microsomes [2]: (5) h
- % degradation of peptidomimetics in 24 h when incubated with liver microsomes [2]: 32%
- Human GLP-1 R activity (cAMP release), % activity with respect to control (Human GLP-1 receptor; 1 nM test compound): 96 ± 0.09%
- Human GLP-1 R activity (cAMP release), % activity with respect to control (Human GLP-1 receptor; 10 nM test compound): 99 ± 0.07%
- Human GLP-1 R activity (cAMP release), % activity with respect to control (Human GLP-1 receptor; 100 nM test compound): 99 ± 0.04%
- Human GLP-1 R activity (cAMP release), % activity with respect to control (Human GLP-1 receptor; 1 μM test compound): 99 ± 0.01%
- Human GLP-1 R activity (cAMP release), % activity with respect to control (Human GLP-1 receptor; 10 μM test compound): 99 ± 0.08%
- % degradation of peptidomimetics in 24 h when incubated with human plasma [3]: 00%
- half-life at 2 μM [3]: > 24 h
- Human Glucagon receptor antagonistic activity shown as inhibition of cAMP production of Glucagon peptide (human glucagon receptor; 1 nM test compound): 20 ± 0.06 pmol/ml/μg prt
- Human Glucagon receptor antagonistic activity shown as inhibition of cAMP production of Glucagon peptide (human glucagon receptor; 10 nM test compound): 18 ± 0.09 pmol/ml/μg prt
- Human Glucagon receptor antagonistic activity shown as inhibition of cAMP production of Glucagon peptide (human glucagon receptor; 100 nM test compound): 16 ± 0.01 pmol/ml/μg prt
- Human Glucagon receptor antagonistic activity shown as inhibition of cAMP production of Glucagon peptide (human glucagon receptor; 1 μM test compound): 14 ± 0.03 pmol/ml/μg prt
- Human Glucagon receptor antagonistic activity shown as inhibition of cAMP production of Glucagon peptide (human glucagon receptor; 10 μM test compound): 12 ± 0.01 pmol/ml/μg prt
- Insulin secretion ([4]; 0.1 nM test compd.): 16.3 ± 0.15 pg/µg/h
- Insulin secretion ([4]; 1 nM test compd.): 22.4 ± 0.21 pg/µg/h
- Insulin secretion ([4]; 10 nM test compd.): 36.2 ± 0.11 pg/µg/h
- % degradation of peptidomimetics in 24 h when incubated with simulated gastric fluid [5]: 00%
- half-life at 2 μM [5]: > 24 h

SMILES: CCc1cc(OC)ccc1-c1ccc(CC(CNC(CCCc2ccccc2)C(N)=O)NC[C@H](CC(=O)O)NC(=O)[C@H](CO)NC(=O)[C@@H](NC(=O)C(C)(Cc2ccccc2F)NC(=O)[C@@H](NC(=O)CNC(=O)C(CCC#N)NC(=O)C(C)(C)NC(=O)[C@@H](N)Cc2c[nH]cn2)[C@H](C)O)[C@H](C)O)cc1 (single isomer, unassigned) [compound 202]
- % degradation of peptidomimetics in 24 h when incubated with simulated intestinal fluid [1]: 00%
- half-life at 2 μM [1]: > 24 h
- % degradation of peptidomimetics in 24 h when incubated with DPP-IV enzyme (DPP IV): 00%
- half-life at 2 μM (DPP IV): > 24 h
- half-life (t1/2) when incubated with liver microsomes [2]: (5) h
- % degradation of peptidomimetics in 24 h when incubated with liver microsomes [2]: 33%
- Human GLP-1 R activity (cAMP release), % activity with respect to control (Human GLP-1 receptor; 1 nM test compound): 99 ± 0.12%
- Human GLP-1 R activity (cAMP release), % activity with respect to control (Human GLP-1 receptor; 10 nM test compound): 99 ± 0.15%
- Human GLP-1 R activity (cAMP release), % activity with respect to control (Human GLP-1 receptor; 100 nM test compound): 99 ± 0.18%
- Human GLP-1 R activity (cAMP release), % activity with respect to control (Human GLP-1 receptor; 1 μM test compound): 99 ± 0.03%
- Human GLP-1 R activity (cAMP release), % activity with respect to control (Human GLP-1 receptor; 10 μM test compound): 99 ± 0.09%
- % degradation of peptidomimetics in 24 h when incubated with human plasma [3]: 00%
- half-life at 2 μM [3]: > 24 h
- Human Glucagon receptor antagonistic activity shown as inhibition of cAMP production of Glucagon peptide (human glucagon receptor; 1 nM test compound): 9 ± 0.14 pmol/ml/μg prt
- Human Glucagon receptor antagonistic activity shown as inhibition of cAMP production of Glucagon peptide (human glucagon receptor; 10 nM test compound): 6 ± 0.14 pmol/ml/μg prt
- Human Glucagon receptor antagonistic activity shown as inhibition of cAMP production of Glucagon peptide (human glucagon receptor; 100 nM test compound): 5 ± 0.13 pmol/ml/μg prt
- Human Glucagon receptor antagonistic activity shown as inhibition of cAMP production of Glucagon peptide (human glucagon receptor; 1 μM test compound): 3 ± 0.24 pmol/ml/μg prt
- Human Glucagon receptor antagonistic activity shown as inhibition of cAMP production of Glucagon peptide (human glucagon receptor; 10 μM test compound): 0 pmol/ml/μg prt
- Insulin secretion ([4]; 0.1 nM test compd.): 16.8 ± 0.20 pg/µg/h
- Insulin secretion ([4]; 1 nM test compd.): 22.7 ± 0.29 pg/µg/h
- Insulin secretion ([4]; 10 nM test compd.): 36.6 ± 0.31 pg/µg/h
- % degradation of peptidomimetics in 24 h when incubated with simulated gastric fluid [5]: 00%
- half-life at 2 μM [5]: > 24 h

SMILES: CCc1cc(OC)ccc1-c1ccc(CC(C(=O)N(C)C(CCCc2ccccc2)C(N)=O)N(C)C(=O)[C@H](CC(=O)O)N(C)C(=O)[C@H](CO)NC(=O)[C@@H](NC(=O)C(C)(Cc2ccccc2F)NC(=O)[C@@H](NC(=O)CNC(=O)C(CCC#N)NC(=O)C(C)(C)NC(=O)[C@@H](N)Cc2c[nH]cn2)[C@H](C)O)[C@H](C)O)cc1 (single isomer, unassigned) [compound 154]
- half-life (t1/2) when incubated with simulated intestinal fluid [1]: (6) h
- % degradation of peptidomimetics in 24 h when incubated with simulated intestinal fluid [1]: 46%
- % degradation of peptidomimetics in 24 h when incubated with DPP-IV enzyme (DPP IV): 74%
- half-life at 2 μM (DPP IV): 9 h
- % degradation of peptidomimetics in 24 h when incubated with liver microsomes [2]: 83%
- half-life at 2 μM [2]: 1 h
- Human GLP-1 R activity (cAMP release), % activity with respect to control (Human GLP-1 receptor; 1 nM test compound): 60 ± 0.12%
- Human GLP-1 R activity (cAMP release), % activity with respect to control (Human GLP-1 receptor; 10 nM test compound): 92 ± 0.15%
- Human GLP-1 R activity (cAMP release), % activity with respect to control (Human GLP-1 receptor; 100 nM test compound): 98 ± 0.18%
- Human GLP-1 R activity (cAMP release), % activity with respect to control (Human GLP-1 receptor; 1 μM test compound): 99 ± 0.03%
- Human GLP-1 R activity (cAMP release), % activity with respect to control (Human GLP-1 receptor; 10 μM test compound): 99 ± 0.09%
- % degradation of peptidomimetics in 24 h when incubated with human plasma [3]: 75%
- half-life at 2 μM [3]: 8 h
- Human Glucagon receptor antagonistic activity shown as inhibition of cAMP production of Glucagon peptide (human glucagon receptor; 1 nM test compound): 9 ± 0.11 pmol/ml/μg prt
- Human Glucagon receptor antagonistic activity shown as inhibition of cAMP production of Glucagon peptide (human glucagon receptor; 10 nM test compound): 6 ± 0.12 pmol/ml/μg prt
- Human Glucagon receptor antagonistic activity shown as inhibition of cAMP production of Glucagon peptide (human glucagon receptor; 100 nM test compound): 5 ± 0.14 pmol/ml/μg prt
- Human Glucagon receptor antagonistic activity shown as inhibition of cAMP production of Glucagon peptide (human glucagon receptor; 1 μM test compound): 3 ± 0.22 pmol/ml/μg prt
- Human Glucagon receptor antagonistic activity shown as inhibition of cAMP production of Glucagon peptide (human glucagon receptor; 10 μM test compound): 0 pmol/ml/μg prt
- Insulin secretion ([4]; 0.1 nM test compd.): 16.1 ± 0.22 pg/µg/h
- Insulin secretion ([4]; 1 nM test compd.): 22.1 ± 0.26 pg/µg/h
- Insulin secretion ([4]; 10 nM test compd.): 36.0 ± 0.36 pg/µg/h
- half-life (t1/2) when incubated with simulated gastric fluid [5]: (8) h
- % degradation of peptidomimetics in 24 h when incubated with simulated gastric fluid [5]: 12%
